Counter-ions that a name gives are not always drawn.
Legend:
[1] = biological target: T1, human 5-HT6 receptor (Homo sapiens, UniProt P50406); experiment: Binding assay for human 5-HT6 receptor ([3H]LSD radioligand); details: human recombinant receptor, [3H]LSD 1.5 nM, 60 minutes at 37° C.; read-out: Radiogland binding data at 5-HT6 R (h) Ki
T1 construct: expressed in transfected cells; host or cells: HEK293
Experimental: Binding Assay for Human 5-HT6 Receptor
Receptor source: Human recombinant expressed in FEK293 cells
Radioligand: [^3H]LSD (60-80 Ci/mmol)
Final ligand concentration —[1.5 nM]
Non-specific determinant: Methiothepin mesylate —[0.1 μM]
Reference compound: Methiothepin mesylate
Positive control: Methiothepin mesylate
Reactions were carried out in 50 μM TRIS-HCl (pH 7.4) containing 10 μM MgCl2, 0.5 mM EDTA for 60 minutes at 37° C. The reaction was terminated by rapid vacuum filtration onto glass fiber filters. Radioactivity trapped onto the filters was determined and compared to control values in order to ascertain any interactions of test compound(s) with the cloned serotonin 5-HT6 binding site.

[2] = tested on: 5-HT6 receptor; details: literature; cited from earlier work
[3] = Pouzet et al. 2002; cited from earlier work

T1 sequence (P50406 whole entry): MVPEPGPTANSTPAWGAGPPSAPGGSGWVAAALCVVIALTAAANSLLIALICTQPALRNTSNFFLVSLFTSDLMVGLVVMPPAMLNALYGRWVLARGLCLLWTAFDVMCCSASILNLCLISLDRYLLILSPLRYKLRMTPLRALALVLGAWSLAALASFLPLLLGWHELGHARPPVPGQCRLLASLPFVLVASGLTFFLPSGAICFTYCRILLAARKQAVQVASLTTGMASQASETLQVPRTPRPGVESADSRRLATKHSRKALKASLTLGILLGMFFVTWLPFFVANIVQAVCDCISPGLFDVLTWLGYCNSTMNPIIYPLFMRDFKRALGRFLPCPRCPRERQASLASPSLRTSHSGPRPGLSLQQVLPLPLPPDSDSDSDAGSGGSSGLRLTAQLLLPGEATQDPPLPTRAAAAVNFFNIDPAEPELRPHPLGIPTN

Row | Structure (SMILES) | Ki [1] [nM] | further results
1 | CN1CCN2c3ccccc3Cc3ccccc3C2C1 (stereo not drawn) [mianserin] | – | affinity for the 5-HT6 receptor [2]: high affinity
2 | COc1ccc(NS(=O)(=O)c2sc3ccc(Cl)cc3c2C)cc1N1CCNCC1 [SB-271046, 5-Chloro-N-(4-methoxy-3-piperazin-1-ylphenyl)-3-methyl-2-benzothiophenesulfonamide] | – | activity in animal tests related to positive or negative symptoms of schizophrenia [3]: inactive
3 | CN1CCN(Cc2cccc3c2c(Br)cn3S(=O)(=O)c2cccc3ccccc23)CC1 [Compound 25, 3-Bromo-1-(1-naphthylsulfonyl)-4-(4-methylpiperazin-1-ylmethyl)-1H-indole] | 97.6 | –
4 | CC(C)c1ccc(S(=O)(=O)n2cc(Cl)c3c(CN4CCN(C)CC4)cccc32)cc1 [Compound 28, 3-Chloro-1-[4-(1-methylethyl)benzenesulfonyl]-4-(4-methylpiperazin-1-ylmethyl)-1H-indole] | 99.7 | –
5 | Cc1ccc(S(=O)(=O)n2cc(Cl)c3c(CN4CCN(C)CC4)cccc32)cc1 [Compound 29, 3-Chloro-1-(4-methylbenzenesulfonyl)-4-(4-methylpiperazin-1-ylmethyl)-1H-indole] | 222 | –
6 | CC(C)c1ccc(S(=O)(=O)n2cc(Br)c3c(CN4CCN(C)CC4)cccc32)cc1 [Compound 20, 3-Bromo-1-[4-(1-Methylethyl)benzenesulfonyl]-4-(4-methylpiperazin-1-ylmethyl)-1H-indole] | 278 | –
7 | CN1CCN(Cc2cccc3c2c(Br)cn3S(=O)(=O)c2ccc(F)cc2)CC1 [Compound 22, 3-Bromo-1-(4-fluorobenzenesulfonyl)-4-(4-methylpiperazin-1-ylmethyl)-1H-indole] | 122 | –
8 | CN(C)CCC=C1c2ccccc2CCc2ccccc21 [amitriptyline] | – | affinity for the 5-HT6 receptor [2]: high affinity
9 | CN1CCN(Cc2cccc3c2c(Cl)cn3S(=O)(=O)c2cccc3ccccc23)CC1 [Compound 34, 3-Chloro-1-(1-naphthylsulfonyl)-4-(4-methylpiperazin-1-ylmethyl)-1H-indole] | 165 | –
10 | CN1CCN(Cc2cccc3c2c(Br)cn3S(=O)(=O)c2cccc(Cl)c2)CC1 [Compound 24, 3-Bromo-1-(3-chlorobenzenesulfonyl)-4-(4-methylpiperazin-1-ylmethyl)-1H-indole] | 75.3 | –
11 | CN1CCN(Cc2cccc3c2c(Cl)cn3S(=O)(=O)c2ccccc2Br)CC1 [Compound 30, 3-Chloro-1-(2-bromobenzenesulfonyl)-4-(4-methylpiperazin-1-ylmethyl)-1H-indole] | 90.7 | –

The next lines start with results.

Row | Ki [1] [nM] | Structure (SMILES) | further results
12 | 30.2 | CN1CCN(Cc2cccc3c2c(Br)cn3S(=O)(=O)c2ccccc2)CC1 [Compound 18, 1-Benzenesulfonyl-3-bromo-4-(4-methylpiperazin-1-ylmethyl)-1H-indole] | –
13 | 0.94 | O=S(=O)(c1ccccc1Br)n1ccc2c(CN3CCNCC3)cccc21 [Compound 36, 1-(2-Bromobenzenesulfonyl)-4-(piperazin-1-ylmethyl)-1H-indole dihydrochloride] | –
14 | 10.7 | Cc1ccc(S(=O)(=O)n2ccc3c(CN4CCNCC4)cccc32)cc1 [Compound 38, 1-(4-Methylbenzenesulfonyl-4-(piperazin-1-ylmethyl)-1H-indoledihydrochloride] | –
15 | 8.58 | COc1ccc(S(=O)(=O)n2ccc3c(CN4CCN(C)CC4)cccc32)c(Br)c1 [Compound 3, 1-(2-Bromo-4-methoxybenzenesulfonyl)-4-(4-methylpiperazin-1-ylmethyl)-1H-indole] | –
16 | 1.43 | CN1CCN(Cc2cccc3c2ccn3S(=O)(=O)c2ccccc2Br)CC1 [Compound 6, 1-(2-Bromobenzenesulfonyl)-4-(4-methylpiperazin-1-ylmethyl)-1H-indole] | –
17 | 7.84 | O=S(=O)(c1ccccc1)n1ccc2c(CN3CCNCC3)cccc21 [Compound 37, 1-Benzenesulfonyl-4-(piperazin-1-ylmethyl)-1H-indole dihydrochloride] | –
18 | 11.1 | CC(C)c1ccc(S(=O)(=O)n2ccc3c(CN4CCN(C)CC4)cccc32)cc1 [Compound 4, 1-[4-(1-Methylethyl)benzenesulfonyl]-4-(4-methylpiperazin-1-ylmethyl)-1H-indole] | –
19 | 4.82 | CN1CCN(Cc2cccc3c2ccn3S(=O)(=O)c2cccc3ccccc23)CC1 [Compound 39, 1-Naphthylsulfonyl-4-(4-methylpiperazin-1-ylmethyl)-1H-indole] | –
20 | 27.1 | CN1CCN(Cc2cccc3c2c(Cl)cn3S(=O)(=O)c2cccc(Cl)c2)CC1 [Compound 33, 3-Chloro-1-(3-chlorobenzenesulfonyl)-4-(4-methylpiperazin-1-ylmethyl)-1H-indole] | –
21 | 7.92 | Cc1ccc(S(=O)(=O)n2ccc3c(CN4CCN(C)CC4)cccc32)cc1 [Compound 5, 1-(4-Methylbenzenesulfonyl)-4-(4-methylpiperazin-1-ylmethyl)-1H-indole] | –
22 | 23.4 | CN1CCN(Cc2cccc3c2ccn3S(=O)(=O)c2ccc(Br)cc2)CC1 [Compound 2, 1-(4-Bromobenzenesulfonyl)-4-(4-methylpiperazin-1-ylmethyl)-1H-indole] | –
23 | 29.1 | COc1ccc(S(=O)(=O)n2ccc3c(CN4CCN(C)CC4)cccc32)cc1 [Compound 8, 1-(4-Methoxybenzenesulfonyl)-4-(4-methylpiperazin-1-ylmethyl)-1H-indole] | –
24 | 13.1 | CN1CCN(Cc2cccc3c2ccn3S(=O)(=O)c2cccc(Cl)c2)CC1 [Compound 41, 1-(3-chlorobenzenesulfonyl)-4-(4-methylpiperazin-1-ylmethyl)-1H-indole] | –
25 | 53.6 | CN1CCN(Cc2cccc3c2c(Cl)cn3S(=O)(=O)c2ccccc2)CC1 [Compound 27, 3-Chloro-1-benzenesulfonyl-4-(4-methylpiperazin-1-ylmethyl)-1H-indole] | –
26 | 6.51 | CN1CCN(Cc2cccc3c2ccn3S(=O)(=O)c2ccccc2)CC1 [Compound 1, 1-Benzenesulfonyl-4-(4-methylpiperazin-1-ylmethyl)-1H-indole] | –
27 | 9.89 | CN1CCN(Cc2cccc3c2ccn3S(=O)(=O)c2ccc(F)cc2)CC1 [Compound 7, 1-(4-Fluorobenzenesulfonyl)-4-(4-methylpiperazin-1-ylmethyl)-1H-indole] | –

Source: patent US20100041669A1, “4-(HETEROCYCLYL)ALKYL-N-(ARYLSULFONYL)INDOLE COMPOUNDS AND THEIR USE AS 5-HT6 LIGANDS” (priority 2007, published 2010)
